Results on three molecules are retold here after US6627411B2, “Method for evaluating matrix metalloprotease inhibitory activity” (Shionogi & Co., Ltd., priority 1999, dated 2003).

The target in assay [1] is T1, MMP-1 (Homo sapiens, UniProt P03956).
T1 sequence (P03956 100-469): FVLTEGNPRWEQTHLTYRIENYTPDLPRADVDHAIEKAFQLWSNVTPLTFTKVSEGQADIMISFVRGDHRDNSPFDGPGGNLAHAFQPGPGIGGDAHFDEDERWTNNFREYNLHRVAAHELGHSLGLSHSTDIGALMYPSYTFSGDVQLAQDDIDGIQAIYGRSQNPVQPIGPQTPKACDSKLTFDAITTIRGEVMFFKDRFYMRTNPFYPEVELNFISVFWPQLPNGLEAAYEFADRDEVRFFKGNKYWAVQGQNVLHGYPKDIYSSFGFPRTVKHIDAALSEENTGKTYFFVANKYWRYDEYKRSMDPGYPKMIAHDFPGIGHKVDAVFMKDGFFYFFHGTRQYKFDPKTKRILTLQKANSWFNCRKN
In words: MMP inhibitory activity IC50, MMP-1. The assay is classed as biochemical.

The target in assay [2] is MMP-9 (Homo sapiens, UniProt P14780). In words: MMP inhibitory activity IC50, MMP-9. The assay is classed as biochemical.
MMP-9, sequence (P14780 94-707, species assumed): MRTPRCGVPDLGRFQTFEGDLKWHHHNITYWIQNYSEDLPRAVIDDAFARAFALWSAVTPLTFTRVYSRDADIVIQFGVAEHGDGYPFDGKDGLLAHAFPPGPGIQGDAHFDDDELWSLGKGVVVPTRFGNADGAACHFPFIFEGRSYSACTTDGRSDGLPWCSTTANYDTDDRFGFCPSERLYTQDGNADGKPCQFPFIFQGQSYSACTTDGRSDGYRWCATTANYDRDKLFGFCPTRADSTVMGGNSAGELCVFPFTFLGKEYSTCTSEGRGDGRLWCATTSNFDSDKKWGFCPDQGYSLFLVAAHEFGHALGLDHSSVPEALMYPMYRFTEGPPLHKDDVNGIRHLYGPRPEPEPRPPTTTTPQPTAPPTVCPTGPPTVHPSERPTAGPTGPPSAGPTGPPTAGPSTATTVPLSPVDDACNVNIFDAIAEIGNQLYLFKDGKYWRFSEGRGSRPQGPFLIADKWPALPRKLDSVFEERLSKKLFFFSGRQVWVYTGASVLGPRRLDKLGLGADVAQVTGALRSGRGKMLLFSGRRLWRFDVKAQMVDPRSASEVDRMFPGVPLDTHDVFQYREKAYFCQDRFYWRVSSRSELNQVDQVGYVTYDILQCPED
The target of assay [3] is MMP-3 (Homo sapiens, UniProt P08254). Briefly: MMP inhibitory activity IC50, MMP-3. In kind it is biochemical.
MMP-3, sequence (P08254 100-477, species assumed): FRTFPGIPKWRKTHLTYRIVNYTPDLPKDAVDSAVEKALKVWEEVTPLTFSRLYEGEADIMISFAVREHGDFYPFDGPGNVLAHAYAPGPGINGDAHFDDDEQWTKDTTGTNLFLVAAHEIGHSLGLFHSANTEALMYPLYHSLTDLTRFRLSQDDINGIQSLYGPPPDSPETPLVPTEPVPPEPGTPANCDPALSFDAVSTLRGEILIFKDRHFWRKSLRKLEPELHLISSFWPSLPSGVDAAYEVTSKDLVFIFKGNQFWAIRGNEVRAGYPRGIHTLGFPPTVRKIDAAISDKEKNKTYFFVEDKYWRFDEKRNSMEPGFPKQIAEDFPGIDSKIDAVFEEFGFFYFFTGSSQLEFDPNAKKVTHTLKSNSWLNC
Assay [4] relates to gelatin degradation in cancer tissue (human lung cancer cell line Ma44). Briefly: In situ zymography of tumor mass from Ma44-bearing nude mice after oral administration. In kind it is in vivo. The conditions noted are these: for Quantitative analysis using Optimas Ver.6 (brightness in each tissue/size in each tissue): 200 mg/kg orally, two hours after administration, vehicle 49.2; for inhibition of the gelatin degradation: nude mice; for Quantitative analysis using Optimas Ver.6: vehicle 53.4. How it is done: Fifteen g of acid-treated swine cutis gelatin was dissolved in 123 g of pure water, and the solution was added with 1.2 ml of 1,2-bis(vinylsulfonylacetamido)ethane (4%) as a hardening agent. The solution was uniformly applied to a polyethylene terephthalate film undercoated with gelatin so as to obtain a dried membrane having a thickness of about 7 μm, and the membrane was dried to obtain a gelatin thin membrane. The gelatin thin membrane was stored at room temperature until the use.
Human lung cancer cell line Ma44 (CANCER RESEARCH 59, 1231-35 (1999)) that was known to produce MMP-2 in a large amount was used. Nude mice (six weeks aged, female, CLEA Japan, Inc.) were transplanted intraperitoneally with 1×10^5 Ma44 cells, and, 14 days later, BPHA or (−)BPHA was administered orally to the animals at 200 mg/kg. As control, a vehicle (a physiological saline containing 0.4% Tween80, 0.5% carboxymethyl cellulose, and 0.9% benzyl alcohol) was similarly administered. Two hours after the administration, the cancer-bearing mice were autopsied to remove the tumor mass formed at the abdominal wall and the mesenterium, and the mass was subjected to the in situ zymography experiment.
The tumor mass was embedded in OCT Compound (SAKURA), and then Microtone/Cryostat TISSUE TEK II (Miles-Sankyo) was used to prepare […] having a thickness of 8 μm. The […] were placed gently onto the gelatin thin membrane previously prepared to give samples, and then the membranes were placed into a humid bath to prevent them from drying, followed by leaving the membranes to stand in an incubator at 37° C. After reacted for 3.5 hours, the thin membranes were taken out, and stained with a 1% Amido Black solution (Wako Pure Chemical Industries) for 15 minutes. Subsequently, the membranes were treated with a decolorizing solution (70% methanol, 10% acetic acid) for 10 minutes.
The cancer tissue on the thin membrane was observed under light microscopy to determine the area where the gelatin degradation was recognized. Additionally, the slide scanner (Nikon 35 mm film scanner: COOLSCAN II) was used to analyze quantitatively the tone with the software Optimas Ver.6 (Optimas Corporation).
was orally administered at dosages of 0.2, 2.0, 20.0, and 200.0 mg/kg in stead of the administrations of BPHA and (−)BPHA, treatments were conducted for in situ zymography.

The target of assay [5] is T2, MMP-2 (Homo sapiens, UniProt P08253).
T2 sequence (P08253 110-660): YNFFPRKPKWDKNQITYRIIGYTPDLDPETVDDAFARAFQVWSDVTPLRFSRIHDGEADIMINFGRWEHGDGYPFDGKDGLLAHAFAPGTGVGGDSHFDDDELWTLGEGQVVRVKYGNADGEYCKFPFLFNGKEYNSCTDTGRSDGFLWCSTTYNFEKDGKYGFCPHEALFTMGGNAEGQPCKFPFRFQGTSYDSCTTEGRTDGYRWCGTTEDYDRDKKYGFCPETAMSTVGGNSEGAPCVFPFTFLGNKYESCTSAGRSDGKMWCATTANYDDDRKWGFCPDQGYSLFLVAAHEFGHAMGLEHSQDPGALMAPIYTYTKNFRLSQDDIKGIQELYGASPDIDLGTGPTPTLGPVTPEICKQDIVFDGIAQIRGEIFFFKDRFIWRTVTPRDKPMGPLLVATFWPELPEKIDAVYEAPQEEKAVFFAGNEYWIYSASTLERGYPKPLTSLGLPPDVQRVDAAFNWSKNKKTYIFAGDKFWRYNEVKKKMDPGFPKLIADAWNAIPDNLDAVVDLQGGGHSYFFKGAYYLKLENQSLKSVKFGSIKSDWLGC
Briefly: MMP inhibitory activity IC50, MMP-2. In kind it is biochemical.

Assay [6] addresses T3, MMP-7 (Homo sapiens, UniProt P09237).
T3 sequence (P09237 95-267): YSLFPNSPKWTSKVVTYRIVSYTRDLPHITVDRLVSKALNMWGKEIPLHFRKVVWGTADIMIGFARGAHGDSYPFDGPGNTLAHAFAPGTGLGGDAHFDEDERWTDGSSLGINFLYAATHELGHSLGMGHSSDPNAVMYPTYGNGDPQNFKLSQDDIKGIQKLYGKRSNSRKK
In words: MMP inhibitory activity IC50, MMP-7. In kind it is biochemical.

The target of assay [7] is MMP-14 (Homo sapiens, UniProt P50281). In words: MMP inhibitory activity IC50, MMP-14. In kind it is biochemical.

Molecules are shown by their SMILES.

The IC50 is the point on the concentration scale where inhibition reaches its midpoint. Higher therefore signals weaker potency.

For the molecule `O=C(NO)[C@H](Cc1ccccc1)NS(=O)(=O)c1ccc(-c2ccccc2)cc1` [(−)BPHA], the IC50 in assay [1], in assay [2], in assay [3], in assay [5], in assay [6] and in assay [7] was greater than 1000 nM each time. Further, the “Quantitative analysis using Optimas Ver.6 (brightness in each tissue/size in each tissue)” value in assay [4] turned out to be 40.1.
For the molecule `O=C(NO)[C@@H](Cc1ccccc1)NS(=O)(=O)c1ccc(-c2ccccc2)cc1` [BPHA], the IC50 in assay [1] is 974 nM; in assay [2], 16 nM; in assay [3] it was greater than 1000 nM; in assay [5], 12 nM; in assay [6], 795 nM; in assay [7], 17 nM. Further, the “Quantitative analysis using Optimas Ver.6 (brightness in each tissue/size in each tissue)” value in assay [4] was found to be 8.6.
Consider `O=C(O)[C@@H](Cc1c[nH]c2ccccc12)NS(=O)(=O)c1ccc(-c2nnn(-c3ccccc3)n2)cc1` [MMI-166], for which the “inhibition of the gelatin degradation” value in assay [4] (0.2 mg/kg orally) was “merely partial inhibition”; in assay [4] (200.0 mg/kg orally), “complete inhibition of the gelatin degradation”; in assay [4] (20.0 to 2.0 mg/kg orally) it was “the inhibition was lowered in sequence”. The “Quantitative analysis using Optimas Ver.6” value was found to be 41.3 in assay [4] (0.2 mg/kg orally), 28.6 in assay [4] (2.0 mg/kg orally), 13.7 in assay [4] (20.0 mg/kg orally) and 5.3 in assay [4] (200.0 mg/kg orally).
